From patent US12396948B2, “Pharmaceutical compositions for the treatment of ophthalmic conditions” (Rhodes Technologies, priority 2017, dated 2025)

Assay: Forced degradation of API, drug product emulsion and placebo (Examples 30 and 32)
Assay type: physicochemical
Description: In this example, a forced degradation study was performed on the API, drug product emulsion, and a placebo. Only w/w % impurities are presented.
In this example, an additional forced degradation study was performed. Harsh conditions for oxidation (H2O2 concentration increased from 1% to 3%, exposure increased from 30 min to 2 hr) and conditions for photolytic degradation (exposure decreased from 24 hr to 40 min) were used in an additional forced degradation study.

[1] = Oxidation 3% H2O2 2 hr, 2nd study

CCCCCc1cc(O)c2c(c1)OC(C)(C)[C@@H]1CCC(C)=C[C@@H]21 [API]
% w/w Impurities RRT 0.46 [1]: 0.29 % w/w | % w/w Impurities RRT 0.56 [1]: 0.20 % w/w | % w/w Impurities RRT 0.93 [1]: 0.65 % w/w | % w/w Impurities Total [1]: 2.6 % w/w | Assay % LC [1]: 83.7 % LC | % Area (Photolytic 40 min, 2nd study): 79.1 % Area | % w/w Impurities CBD (Photolytic 40 min, 2nd study): 8.20 % w/w | % w/w Impurities CBN (Photolytic 40 min, 2nd study): 1.00 % w/w | % w/w Impurities RRT 0.30 (Photolytic 40 min, 2nd study): 0.07 % w/w | % w/w Impurities RRT 0.44 (Photolytic 40 min, 2nd study): 0.68 % w/w | % w/w Impurities RRT 0.46 (Photolytic 40 min, 2nd study): 1.35 % w/w | % w/w Impurities RRT 0.52 (Photolytic 40 min, 2nd study): 1.56 % w/w | % w/w Impurities RRT 0.56 (Photolytic 40 min, 2nd study): 0.17 % w/w | % w/w Impurities RRT 0.70 (Photolytic 40 min, 2nd study): 0.62 % w/w | % w/w Impurities RRT 0.82 (Photolytic 40 min, 2nd study): 0.22 % w/w | % w/w Impurities RRT 1.35 (Photolytic 40 min, 2nd study): 0.21 % w/w | % w/w Impurities RRT 1.40 (Photolytic 40 min, 2nd study): 0.21 % w/w | % w/w Impurities RRT 1.45 (Photolytic 40 min, 2nd study): 0.52 % w/w | % w/w Impurities RRT 1.48 (Photolytic 40 min, 2nd study): 0.40 % w/w | % w/w Impurities Total (Photolytic 40 min, 2nd study): 15.2 % w/w | Assay % LC (Photolytic 40 min, 2nd study): 57.5 % LC | % Area (Photolytic 24 hr, 1st study): 11.3 % Area | % w/w Impurities CBN (Photolytic 24 hr, 1st study): 6.75 % w/w | % w/w Impurities RRT 0.39 (Photolytic 24 hr, 1st study): 0.79 % w/w | % w/w Impurities RRT 0.40 (Photolytic 24 hr, 1st study): 0.66 % w/w | % w/w Impurities RRT 0.46 (Photolytic 24 hr, 1st study): 4.05 % w/w | % w/w Impurities RRT 0.49 (Photolytic 24 hr, 1st study): 2.55 % w/w | % w/w Impurities RRT 0.62 (Photolytic 24 hr, 1st study): 1.45 % w/w | % w/w Impurities RRT 0.75 (Photolytic 24 hr, 1st study): 0.25 % w/w | % w/w Impurities RRT 0.82 (Photolytic 24 hr, 1st study): 0.49 % w/w | % w/w Impurities RRT 1.19 (Photolytic 24 hr, 1st study): 0.83 % w/w | % w/w Impurities RRT 1.45 (Photolytic 24 hr, 1st study): 0.07 % w/w | % w/w Impurities Total (Photolytic 24 hr, 1st study): 17.9 % w/w | Assay % LC (Photolytic 24 hr, 1st study): 2.3 % LC | Impurity Change CBD (Stress condition Acid): 2 (2: Increase in API) | Impurity Change RRT 0.40 (Stress condition Acid): 2 (2: Increase in API) | Impurity Change RRT 0.46 (Stress condition Acid): — (Blank cell: no effect) | Impurity Change RRT 0.62 (Stress condition Acid): 2 (2: Increase in API) | Impurity Change RRT 0.93 (Stress condition Acid): — (Blank cell: no effect) | Impurity Change CBD (Stress condition Base): 2 (2: Increase in API) | Impurity Change CBN (Stress condition Base): — (Blank cell: no effect) | Impurity Change RRT 0.40 (Stress condition Base): 2 (2: Increase in API) | Impurity Change RRT 0.46 (Stress condition Base): — (Blank cell: no effect) | Impurity Change RRT 0.62 (Stress condition Base): 2 (2: Increase in API) | Impurity Change RRT 0.93 (Stress condition Base): — (Blank cell: no effect) | Impurity Change CBD (Stress condition Oxidation): 2 (2: Increase in API) | Impurity Change CBN (Stress condition Oxidation): — (Blank cell: no effect) | Impurity Change RRT 0.40 (Stress condition Oxidation): — (Blank cell: no effect) | Impurity Change RRT 0.46 (Stress condition Oxidation): — (Blank cell: no effect) | Impurity Change RRT 0.62 (Stress condition Oxidation): 2 (2: Increase in API) | Impurity Change RRT 0.93 (Stress condition Oxidation): — (Blank cell: no effect) | Impurity Change CBD (Stress condition Photolytic): 2 (2: Increase in API) | Impurity Change CBN (Stress condition Photolytic): 2 (2: Increase in API) | Impurity Change RRT 0.40 (Stress condition Photolytic): 2 (2: Increase in API) | Impurity Change RRT 0.46 (Stress condition Photolytic): 2 (2: Increase in API) | Impurity Change RRT 0.62 (Stress condition Photolytic): 2 (2: Increase in API) | Impurity Change CBD (Stress condition Thermal): 2 (2: Increase in API) | Impurity Change CBN (Stress condition Thermal): 2 (2: Increase in API) | Impurity Change RRT 0.46 (Stress condition Thermal): 2 (2: Increase in API) | % Area (Thermal 24 hr, 1st study): 77.5 % Area | % w/w Impurities CBD (Thermal 24 hr, 1st study): 2.43 % w/w | % w/w Impurities CBN (Thermal 24 hr, 1st study): 9.03 % w/w | % w/w Impurities RRT 0.30 (Thermal 24 hr, 1st study): 0.15 % w/w | % w/w Impurities RRT 0.44 (Thermal 24 hr, 1st study): 0.47 % w/w | % w/w Impurities RRT 0.46 (Thermal 24 hr, 1st study): 0.56 % w/w | % w/w Impurities RRT 0.52 (Thermal 24 hr, 1st study): 0.40 % w/w | % w/w Impurities RRT 0.56 (Thermal 24 hr, 1st study): 0.22 % w/w | % w/w Impurities RRT 0.70 (Thermal 24 hr, 1st study): 0.29 % w/w | % w/w Impurities RRT 1.19 (Thermal 24 hr, 1st study): 0.54 % w/w | % w/w Impurities RRT 1.27 (Thermal 24 hr, 1st study): 0.26 % w/w | % w/w Impurities RRT 1.40 (Thermal 24 hr, 1st study): 0.50 % w/w | % w/w Impurities RRT 1.45 (Thermal 24 hr, 1st study): 0.34 % w/w | % w/w Impurities RRT 1.48 (Thermal 24 hr, 1st study): 0.14 % w/w | % w/w Impurities Total (Thermal 24 hr, 1st study): 15.3 % w/w | Assay % LC (Thermal 24 hr, 1st study): 52.8 % LC | Assay decrease (second study, photolytic degradation, 40 min light exposure): ~30%
